This note sets out measurements from ChEMBL document CHEMBL1153306, “Relation between lipophilicity of alkyl gallates and antifungal activity against yeasts and filamentous fungi” (Bioorg Med Chem Lett, 2009).

In brackets after ≈: the same amount, converted by molar mass.

In one series the test system is Candida albicans. Briefly: Antifungal activity against Candida albicans after 48 hrs by broth microdilution technique. It is filed as functional. In general terms: Broth dilution looks for growth in wells or tubes with falling amounts of substance.
The next series relates to Candida tropicalis. Kind of series: Antifungal activity against Candida tropicalis after 48 hrs by broth microdilution technique. It counts as functional.
The subject of another series is Saccharomyces cerevisiae. Kind of series: Antifungal activity against Saccharomyces cerevisiae after 48 hrs by broth microdilution technique. It counts as functional.
The subject of a further series is Cryptococcus neoformans. Kind of series: Antifungal activity against Cryptococcus neoformans after 48 hrs by broth microdilution technique. It is filed as functional.
The subject of a further series is Aspergillus fumigatus. Briefly: Antimicrobial activity against Aspergillus fumigatus after 48 hrs by broth microdilution technique. It counts as functional.
A further series relates to Aspergillus flavus. Briefly: Antimicrobial activity against Aspergillus flavus after 48 hrs by broth microdilution technique. It is filed as functional.
A further series concerns Aspergillus niger. Kind of series: Antimicrobial activity against Aspergillus niger after 48 hrs by broth microdilution technique. It counts as functional.
A further series relates to Nannizzia gypsea. Kind of series: Antimicrobial activity against Microsporum gypseum after 48 hrs by broth microdilution technique. It is filed as functional.
The test system of a further series is Epidermophyton floccosum. Briefly: Antimicrobial activity against Epidermophyton floccosum after 48 hrs by broth microdilution technique. It is filed as functional.
The subject of the next series is Trichophyton rubrum. Kind of series: Antimicrobial activity against Trichophyton rubrum after 48 hrs by broth microdilution technique. It is filed as functional.
For series [1], the system named is Trichophyton mentagrophytes. Kind of series: Antimicrobial activity against Trichophyton mentagrophytes after 48 hrs by broth microdilution technique. It counts as functional.
A short description of series [2]: Lipophilicity, log P of the compound. It counts as physicochemical. Conditions: octanol/water.

What is called MIC is the lowest concentration that inhibits growth of the organism. By logP is commonly meant the decadic logarithm of the partition coefficient of the neutral form, usually between octanol and water. High values mean a more lipophilic compound, low ones a more hydrophilic compound. Take `CCCCCCCCCOC(=O)c1cc(O)c(O)c(O)c1` [NONYL GALLATE]: the minimum inhibitory concentration (MIC) turned out to be 8 µg/mL (≈ 27 µM) with Candida albicans; 8 µg/mL (≈ 27 µM) in the series on Candida tropicalis; 8 µg/mL (≈ 27 µM) with Saccharomyces cerevisiae; 8 µg/mL (≈ 27 µM) with Cryptococcus neoformans; 62.5 µg/mL (≈ 211 µM) against Aspergillus fumigatus; 62.5 µg/mL (≈ 211 µM) with Aspergillus flavus. For the same molecule, the minimum inhibitory concentration (MIC) with Aspergillus niger was 125 µg/mL (≈ 422 µM); in the series on Nannizzia gypsea it was 8 µg/mL (≈ 27 µM); against Epidermophyton floccosum, 25 µg/mL (≈ 84.4 µM); in the series with Trichophyton rubrum, 8 µg/mL (≈ 27 µM); in [1], 8 µg/mL (≈ 27 µM). The lipophilicity (logP) in series [2] came out at 3.7.

For the molecule `CCCCCCCCOC(=O)c1cc(O)c(O)c(O)c1` [OCTYL_GALLATE], the MIC in the series on Candida albicans worked out at 62.5 µg/mL (≈ 221 µM); against Candida tropicalis, 62.5 µg/mL (≈ 221 µM); in the series on Saccharomyces cerevisiae, 50 µg/mL (≈ 177 µM); against Cryptococcus neoformans, 50 µg/mL (≈ 177 µM); in the series on Aspergillus fumigatus, 62.5 µg/mL (≈ 221 µM); against Aspergillus flavus it was 62.5 µg/mL (≈ 221 µM). Further, the minimal inhibitory concentration (MIC) against Aspergillus niger was 62.5 µg/mL (≈ 221 µM); against Nannizzia gypsea, 6.25 µg/mL (≈ 22.1 µM); in the series with Epidermophyton floccosum, 6.25 µg/mL (≈ 22.1 µM); in the series on Trichophyton rubrum it was 6.25 µg/mL (≈ 22.1 µM); in series [1], 12.5 µg/mL (≈ 44.3 µM). The logP in series [2] worked out at 3.7.

For the molecule `CCCCCCCCCCCCCCOC(=O)c1cc(O)c(O)c(O)c1` [TETRADECYL GALLATE], the MIC against Candida albicans is greater than 250 µg/mL; in the series with Candida tropicalis, greater than 250 µg/mL; against Saccharomyces cerevisiae, greater than 250 µg/mL; in the series on Cryptococcus neoformans it was 250 µg/mL (≈ 682 µM); in the series on Aspergillus fumigatus, greater than 250 µg/mL; with Aspergillus flavus, greater than 250 µg/mL. The MIC in the series with Aspergillus niger was greater than 250 µg/mL; in the series with Nannizzia gypsea, 100 µg/mL (≈ 273 µM); against Epidermophyton floccosum, greater than 250 µg/mL; against Trichophyton rubrum, 50 µg/mL (≈ 136 µM); in series [1], 50 µg/mL (≈ 136 µM).
